Assay results from patent publication US20210315844A1, “ENDOXIFEN FOR THE TREATMENT OF BIPOLAR I DISORDER” (Jina Pharmaceuticals, Inc., priority 2020, published 2021).

Tests used:
[1] = test system: patient of bipolar I disorders; test: Clinical study: C-SSRS score / risk of suicidal behavior in patients treated with endoxifen enteric coated tablet; assay type: in vivo, human; conditions: day 21 (EOT)
Description: Clinical study of an enteric coated tablet comprising endoxifen citrate formulation was carried out by administering to the patient doses of 2 mg to 16 mg of endoxifen citrate in an enteric coated tablet once per day for at least 21 days according to the present application.
This study was a multicenter, randomized, double-blind, double-dummy, active controlled, parallel study to assess the efficacy and safety of endoxifen enteric coated tablet 8 mg and divalproex sodium extended release tablet 1000 mg in patient of bipolar I disorders, this study also evaluated the risk of suicidal behavior in the patient and that has progressed during or after treatment with at least one drug(s) selected from lithium, valproate, carbamazepine or an atypical (except clozapine) or typical antipsychotic.
Total 110 patients were qualified for PP population.

[2] = test system: PKC; conditions: relative to tamoxifen; cited from earlier work

CC/C(=C(\c1ccc(O)cc1)c1ccc(OCCNC)cc1)c1ccccc1.O=C(O)CC(O)(CC(=O)O)C(=O)O [Endoxifen, (Z)-1-(4-Hydroxyphenyl)-1-{4-[2-(monomethylamino)ethoxy]phenyl}-2-phenyl-1-butene citrate]
risk of suicidal behavior [1]: zero | potency in inhibiting the PKC activity compared to tamoxifen [2]: four-fold higher potency
